Measurements: patent US20250230193A1, “CYCLIC COMPOUND HAVING SELECTIVE KRAS INHIBITORY EFFECT ON HRAS AND NRAS” (CHUGAI SEIYAKU KABUSHIKI KAISHA, priority 2022, published 2025)

Columns and labels:
[1] = target: GDP-bound NRAS wild-type protein (Homo sapiens, UniProt P01111); test: Binding to NRAS by surface plasmon resonance (SPR), Single Cycle Kinetics; details: KD ratio, GDP-bound NRAS wild-type vs GDP-bound KRAS wild-type, SPR
[2] = target: GDP-bound HRAS wild-type protein (Homo sapiens, UniProt P01112); test: Binding to HRAS by surface plasmon resonance (SPR), Single Cycle Kinetics; details: KD ratio, GDP-bound HRAS wild-type vs GDP-bound KRAS wild-type, SPR
Chain of GDP-bound HRAS wild-type protein (P01112 whole entry): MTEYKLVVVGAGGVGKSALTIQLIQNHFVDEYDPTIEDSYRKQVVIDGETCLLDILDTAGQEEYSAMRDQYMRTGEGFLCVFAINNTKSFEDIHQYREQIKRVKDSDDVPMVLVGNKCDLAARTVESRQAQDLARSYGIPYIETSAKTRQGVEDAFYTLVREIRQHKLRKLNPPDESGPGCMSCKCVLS

Chain of GDP-bound NRAS wild-type protein (P01111 whole entry): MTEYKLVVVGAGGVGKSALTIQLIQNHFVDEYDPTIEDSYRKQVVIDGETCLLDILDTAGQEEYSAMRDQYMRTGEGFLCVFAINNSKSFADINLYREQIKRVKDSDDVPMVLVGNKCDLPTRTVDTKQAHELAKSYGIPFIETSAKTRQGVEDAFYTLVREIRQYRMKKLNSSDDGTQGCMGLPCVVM

Compound | NRAS/KRAS (ratio of KD value with respect to NRAS to KD value with respect to KRAS) [1] | HRAS/KRAS (ratio of KD value with respect to HRAS to KD value with respect to KRAS) [2]
CCO[C@@H]1C[C@H]2C(=O)NC3(CCC3)C(=O)N(C)[C@@H](C3CCCC3)C(=O)N(C)[C@H](C(=O)N(C)C)CC(=O)N(C)[C@@H](C)C(=O)N[C@@H]([C@@H](C)CC)C(=O)N(C)CC(=O)N(C)[C@H]3C/C=C\CCN(C3=O)[C@@H](Cc3ccc(C(F)(F)F)cc3)C(=O)N(C)CC(=O)N[C@@H](CCc3cc(F)c(C(F)(F)F)c(F)c3)C(=O)N2C1 [PP1108] | A (a compound having 10 or more and less than 20 is denoted as A) | A (a compound having 10 or more and less than 20 is denoted as A)
CCO[C@@H]1C[C@H]2C(=O)NC3(CCC3)C(=O)N(C)[C@@H](C3CCCC3)C(=O)N(C)[C@H](C(=O)N(C)C)CC(=O)N(C)[C@@H](C(C)C)C(=O)N[C@@H]([C@@H](C)CC)C(=O)N(C)CC(=O)N(C)[C@H]3C/C=C\CCN(C3=O)[C@@H](Cc3ccc(C(F)(F)F)cc3)C(=O)N(C)CC(=O)N[C@@H](CCc3cc(F)c(C(F)(F)F)c(F)c3)C(=O)N2C1 [PP1109] | A (a compound having 10 or more and less than 20 is denoted as A) | B (a compound having 3 or more and less than 10 is denoted as B)
CCC[C@H]1C(=O)N[C@@H]([C@@H](C)CC)C(=O)N(C)CC(=O)N(C)[C@H]2C/C=C\CCN(C2=O)[C@@H](Cc2ccc(C(F)(F)F)cc2)C(=O)N(C)CC(=O)N[C@@H](CCc2cc(F)c(C(F)(F)F)c(F)c2)C(=O)N2C[C@H](OCC)C[C@H]2C(=O)NC2(CCC2)C(=O)N(C)[C@@H](C2CCCC2)C(=O)N(C)[C@H](C(=O)N(C)C)CC(=O)N1C [PP1110] | A (a compound having 10 or more and less than 20 is denoted as A) | B (a compound having 3 or more and less than 10 is denoted as B)
CCO[C@@H]1C[C@H]2C(=O)NC3(CCC3)C(=O)N(C)[C@@H](C3CCCC3)C(=O)N(C)[C@H](C(=O)N(C)C)CC(=O)N(C)[C@@H](CC3CC3)C(=O)N[C@@H]([C@@H](C)CC)C(=O)N(C)CC(=O)N(C)[C@H]3C/C=C\CCN(C3=O)[C@@H](Cc3ccc(C(F)(F)F)cc3)C(=O)N(C)CC(=O)N[C@@H](CCc3cc(F)c(C(F)(F)F)c(F)c3)C(=O)N2C1 [PP1111] | A (a compound having 10 or more and less than 20 is denoted as A) | A (a compound having 10 or more and less than 20 is denoted as A)
CCO[C@@H]1C[C@H]2C(=O)NC3(CCC3)C(=O)N(C)[C@@H](C3CCCC3)C(=O)N(C)[C@H](C(=O)N(C)C)CC(=O)N(C)[C@@H](CC3CCCC3)C(=O)N[C@@H]([C@@H](C)CC)C(=O)N(C)CC(=O)N(C)[C@H]3C/C=C\CCN(C3=O)[C@@H](Cc3ccc(C(F)(F)F)cc3)C(=O)N(C)CC(=O)N[C@@H](CCc3cc(F)c(C(F)(F)F)c(F)c3)C(=O)N2C1 [PP1112] | A (a compound having 10 or more and less than 20 is denoted as A) | B (a compound having 3 or more and less than 10 is denoted as B)
CCO[C@@H]1C[C@H]2C(=O)NC3(CCC3)C(=O)N(C)[C@@H](C3CCCC3)C(=O)N(C)[C@H](C(=O)N(C)C)CC(=O)N(C)[C@@H](COC)C(=O)N[C@@H]([C@@H](C)CC)C(=O)N(C)CC(=O)N(C)[C@H]3C/C=C\CCN(C3=O)[C@@H](Cc3ccc(C(F)(F)F)cc3)C(=O)N(C)CC(=O)N[C@@H](CCc3cc(F)c(C(F)(F)F)c(F)c3)C(=O)N2C1 [PP1113] | A (a compound having 10 or more and less than 20 is denoted as A) | A (a compound having 10 or more and less than 20 is denoted as A)
C=CC[C@H]1C(=O)N[C@@H]([C@@H](C)CC)C(=O)N(C)CC(=O)N(C)[C@H]2C/C=C\CCN(C2=O)[C@@H](Cc2ccc(C(F)(F)F)cc2)C(=O)N(C)CC(=O)N[C@@H](CCc2cc(F)c(C(F)(F)F)c(F)c2)C(=O)N2C[C@H](OCC)C[C@H]2C(=O)NC2(CCC2)C(=O)N(C)[C@@H](C2CCCC2)C(=O)N(C)[C@H](C(=O)N(C)C)CC(=O)N1C [PP1114] | A (a compound having 10 or more and less than 20 is denoted as A) | A (a compound having 10 or more and less than 20 is denoted as A)
C#CC[C@H]1C(=O)N[C@@H]([C@@H](C)CC)C(=O)N(C)CC(=O)N(C)[C@H]2C/C=C\CCN(C2=O)[C@@H](Cc2ccc(C(F)(F)F)cc2)C(=O)N(C)CC(=O)N[C@@H](CCc2cc(F)c(C(F)(F)F)c(F)c2)C(=O)N2C[C@H](OCC)C[C@H]2C(=O)NC2(CCC2)C(=O)N(C)[C@@H](C2CCCC2)C(=O)N(C)[C@H](C(=O)N(C)C)CC(=O)N1C [PP1115] | A (a compound having 10 or more and less than 20 is denoted as A) | A (a compound having 10 or more and less than 20 is denoted as A)
CCO[C@@H]1C[C@H]2C(=O)NC3(CCC3)C(=O)N(C)[C@@H](C3CCCC3)C(=O)N(C)[C@H](C(=O)N(C)C)CC(=O)N(C)[C@@H](Cc3ccccc3)C(=O)N[C@@H]([C@@H](C)CC)C(=O)N(C)CC(=O)N(C)[C@H]3C/C=C\CCN(C3=O)[C@@H](Cc3ccc(C(F)(F)F)cc3)C(=O)N(C)CC(=O)N[C@@H](CCc3cc(F)c(C(F)(F)F)c(F)c3)C(=O)N2C1 [PP1116] | A (a compound having 10 or more and less than 20 is denoted as A) | A (a compound having 10 or more and less than 20 is denoted as A)
CCO[C@@H]1C[C@H]2C(=O)NC3(CCC3)C(=O)N(C)[C@@H](C3CCCC3)C(=O)N(C)[C@H](C(=O)N(C)C)CC(=O)N(C)[C@@H](CC(C)(C)C)C(=O)N[C@@H]([C@@H](C)CC)C(=O)N(C)CC(=O)N(C)[C@H]3C/C=C\CCN(C3=O)[C@@H](Cc3ccc(C(F)(F)F)cc3)C(=O)N(C)CC(=O)N[C@@H](CCc3cc(F)c(C(F)(F)F)c(F)c3)C(=O)N2C1 [PP1117] | A (a compound having 10 or more and less than 20 is denoted as A) | A (a compound having 10 or more and less than 20 is denoted as A)
CCO[C@@H]1C[C@H]2C(=O)NC3(CCC3)C(=O)N(C)[C@@H](C3CCCC3)C(=O)N(C)[C@H](C(=O)N(C)C)CC(=O)N(C)[C@@H](CC3CCC3)C(=O)N[C@@H]([C@@H](C)CC)C(=O)N(C)CC(=O)N(C)[C@H]3C/C=C\CCN(C3=O)[C@@H](Cc3ccc(C(F)(F)F)cc3)C(=O)N(C)CC(=O)N[C@@H](CCc3cc(F)c(C(F)(F)F)c(F)c3)C(=O)N2C1 [PP1118] | A (a compound having 10 or more and less than 20 is denoted as A) | B (a compound having 3 or more and less than 10 is denoted as B)
CCO[C@@H]1C[C@H]2C(=O)NC3(CCC3)C(=O)N(C)[C@@H](C3CCCC3)C(=O)N(C)[C@H](C(=O)N(C)C)CC(=O)N(C)[C@@H](CSC)C(=O)N[C@@H]([C@@H](C)CC)C(=O)N(C)CC(=O)N(C)[C@H]3C/C=C\CCN(C3=O)[C@@H](Cc3ccc(C(F)(F)F)cc3)C(=O)N(C)CC(=O)N[C@@H](CCc3cc(F)c(C(F)(F)F)c(F)c3)C(=O)N2C1 [PP1119] | A (a compound having 10 or more and less than 20 is denoted as A) | A (a compound having 10 or more and less than 20 is denoted as A)
CCO[C@@H]1C[C@H]2C(=O)NC3(CCC3)C(=O)N(C)[C@@H](C3CCCC3)C(=O)N(C)[C@H](C(=O)N(C)C)CC(=O)N(C)[C@@H](CC(F)F)C(=O)N[C@@H]([C@@H](C)CC)C(=O)N(C)CC(=O)N(C)[C@H]3C/C=C\CCN(C3=O)[C@@H](Cc3ccc(C(F)(F)F)cc3)C(=O)N(C)CC(=O)N[C@@H](CCc3cc(F)c(C(F)(F)F)c(F)c3)C(=O)N2C1 [PP1120] | A (a compound having 10 or more and less than 20 is denoted as A) | A (a compound having 10 or more and less than 20 is denoted as A)
CCO[C@@H]1C[C@H]2C(=O)NC3(CCC3)C(=O)N(C)[C@@H](C3CCCC3)C(=O)N(C)[C@H](C(=O)N(C)C)CC(=O)N(C)[C@@H](CCC(F)F)C(=O)N[C@@H]([C@@H](C)CC)C(=O)N(C)CC(=O)N(C)[C@H]3C/C=C\CCN(C3=O)[C@@H](Cc3ccc(C(F)(F)F)cc3)C(=O)N(C)CC(=O)N[C@@H](CCc3cc(F)c(C(F)(F)F)c(F)c3)C(=O)N2C1 [PP1121] | A (a compound having 10 or more and less than 20 is denoted as A) | A (a compound having 10 or more and less than 20 is denoted as A)
CCO[C@@H]1C[C@H]2C(=O)NC3(CCC3)C(=O)N(C)[C@@H](C3CCCC3)C(=O)N(C)[C@H](C(=O)N(C)C)CC(=O)N(C)[C@@H](CCC(=O)N(C)C)C(=O)N[C@@H]([C@@H](C)CC)C(=O)N(C)CC(=O)N(C)[C@H]3C/C=C\CCN(C3=O)[C@@H](Cc3ccc(C(F)(F)F)cc3)C(=O)N(C)CC(=O)N[C@@H](CCc3cc(F)c(C(F)(F)F)c(F)c3)C(=O)N2C1 [PP1122] | A (a compound having 10 or more and less than 20 is denoted as A) | B (a compound having 3 or more and less than 10 is denoted as B)
